Earlier results, collected in patent US7226619B1, “Material for controlling diversion of medications” (PharmoRx Inc., priority 2004, dated 2007).
Read-outs that look alike come from different tables or passages of the source.

Assays:
[1] = target: 2D6 component of the P450 metabolic system (Homo sapiens, UniProt P10635)
[2] = oxymorphone vs parent oxycodone; per Richard B. Patt, American Pain Society Bulletin 6(4), 1996

Chain of 2D6 component of the P450 metabolic system (P10635 whole entry): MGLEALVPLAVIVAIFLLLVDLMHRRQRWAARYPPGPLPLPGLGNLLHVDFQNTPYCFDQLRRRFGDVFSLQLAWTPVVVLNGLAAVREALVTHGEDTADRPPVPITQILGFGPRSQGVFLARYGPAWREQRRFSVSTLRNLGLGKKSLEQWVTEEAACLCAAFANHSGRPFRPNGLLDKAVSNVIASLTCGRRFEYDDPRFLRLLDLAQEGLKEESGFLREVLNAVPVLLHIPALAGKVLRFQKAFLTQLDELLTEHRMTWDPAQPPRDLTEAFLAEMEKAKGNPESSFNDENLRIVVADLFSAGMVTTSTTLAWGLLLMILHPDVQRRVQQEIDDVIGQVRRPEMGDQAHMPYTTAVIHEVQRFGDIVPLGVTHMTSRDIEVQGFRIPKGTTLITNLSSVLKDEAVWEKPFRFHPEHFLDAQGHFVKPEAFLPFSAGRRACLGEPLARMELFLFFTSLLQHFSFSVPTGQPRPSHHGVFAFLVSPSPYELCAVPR

Row | SMILES | inhibitor of 2D6 (in words) ([1]; qualitative statement, no data) | inhibitor of 2D6 (in words) [1] | further results
1 | COC(=O)C1=CO[C@@H](C)[C@H]2CN3CCc4c([nH]c5ccccc45)[C@@H]3C[C@H]12 [ajmalicine] | strong inhibitors | – | –
2 | CN/C(=N/CCSCc1nc[nH]c1C)NC#N [cimetidine] | – | strong inhibitors | –
3 | COc1ccc(CN(CCN(C)C)c2ccccn2)cc1 [mepyramine] | – | strong inhibitors | –
4 | CN1CC[C@]23c4c5ccc(O)c4O[C@H]2C(=O)CC[C@@]3(O)[C@H]1C5 [oxymorphone] | – | – | effectiveness as an agonist relative to oxycodone [2]: at least 10 times
5 | Fc1ccc([C@@H]2CCNC[C@H]2COc2ccc3c(c2)OCO3)cc1 [paroxetine] | strong inhibitors | – | –
6 | C=C[C@H]1C[N@@]2CC[C@H]1C[C@@H]2[C@@H](O)c1ccnc2ccc(OC)cc12 [quinidine] | strong inhibitors | – | –
7 | COC(=O)[C@H]1[C@H]2C[C@@H]3c4[nH]c5cc(OC)ccc5c4CCN3C[C@H]2C[C@@H](OC(=O)c2cc(OC)c(OC)c(OC)c2)[C@@H]1OC [reserpine] | – | strong inhibitors | –
